# Source: patent USRE31731E, “Herbicidal 4-trifluoromethyl-4-nitrodiphenyl ethers” (priority 1978, dated 1984)
# How the values were obtained:
# Type in all cases: in vivo
# Monocots [1] = assay: Herbicidal activity, postemergence, monocot weeds (Table II); settings: post-emergence, 336 h, about 2 weeks, read-out: % control (percent of plants killed); for pest or weed control at 2241.7 g/ha: 2 lb./A.; for pest or weed control at 4483.4 g/ha: 4 lb./A.
# Experimental: (§1) Using the procedure described below, diphenyl ethers were evaluated for control of the following weeds: […]
# (§2) barnyardgrass (Echinochloa crusgalli) crabgrass (Digitaria spp.) nutsedge (Cyperus esculentus)
# (§3) At 2 and 4 pounds per acre:
# (§4) **Bermudagrass (Cynodon dactylon)
# (§5) *downy brome (Bromus tectorum) foxtail (Setaria faberii)
# (§6) Johnsongrass (Sorghum halepense) […]
# (§7) quackgrass (Agropyron repens)
# (§8) *ryegrass (Lolium perenne)
# (§9) *yellow millet (Panicum miliaceum)
# (§10) The following test procedure is employed. Seeds of selected crops and weeds are planted in soil in flats. For preemergence tests, the flats are treated with the test compound immediately after the planting. For postemergence tests, the seeds are allowed to germinate, and after 2 weeks the flats are treated with the test compound. The compound to be evaluated is dissolved in acetone, diluted with water, and sprayed over the flats using a carrier volume equivalent to 50 gallons per acre at the rate of application (pounds per acre, lb/A.) specified in the tables. About 2 weeks after the application of the test compound, the state of growth of the plants is observed and the phytotoxic effect of the compound is evaluated. Table II gives the average percent control achieved by the test compounds in terms of the percent of the plants which are killed by the compounds.
# corn = assay: Crop tolerance, corn; settings: 50% or less kill of crop at rates giving more than 50% kill of weeds
# Experimental: as §10
# (§11) Following the general test procedure of Example 73, diphenyl ethers are evaluated for significant tolerance (as shown by 50% or less kill of the test crop at levels of application which give more than 50% kill of many or all of the weeds of Example 73) towards some or all of the following common agronomic crops (not all compounds tested against all crops): alfalfa, snapbeans, corn, cotton, cucumbers, peanuts, rape, rice, safflower, soybeans, tomatoes, and wheat.
# rice = assay: Crop tolerance, rice; settings: 50% or less kill of crop at rates giving more than 50% kill of weeds
# Experimental: as §10, §11
# Monocots [2] = assay: Herbicidal activity, preemergence, monocot weeds (Table II); settings: pre-emergence, 336 h, about 2 weeks, read-out: % control (percent of plants killed); for pest or weed control at 2241.7 g/ha: 2 lb./A.; for pest or weed control at 4483.4 g/ha: 4 lb./A.
# Experimental: as §1, §2, §3, §4, §5, §6, §7, §8, §9, §10
# Dicots [3] = assay: Herbicidal activity, postemergence, dicot weeds (Table II); settings: post-emergence, 336 h, about 2 weeks, read-out: % control (percent of plants killed); for pest or weed control at 2241.7 g/ha: 2 lb./A.; for pest or weed control at 4483.4 g/ha: 4 lb./A.
# Experimental: as §1
# (§12) bindweed (Convolvulus arvensis) curly dock (Remex crispus) velvetleaf (Abutilon theophrasti) wild mustard (Brassica haber)
# (§13) At 2 and 4 pounds per acre: […]
# (§14) cocklebur (Xanthium pensylvanicum)
# (§15) **coffeeweed (Sesbania macrocarpa)
# (§16) *curly dock (Rumex crispus)
# (§17) *lambsquarters (Chenopodium album) morningglory (Ipomoea purpurea)
# (§18) *pigweed (Amaranthus retroflexus)
# (§19) **ragweed (Ambrosia artemisiifolia)
# (§20) *smartweed (Polygonum pensylvanicum)
# (§21) **tomato (Lycopersicon esculentum)
# (§22) *wild carrot (Daucus carota)
# (§23) *wild mustard (Brassica haber)
# as §10
# Dicots [4] = assay: Herbicidal activity, preemergence, dicot weeds (Table II); settings: pre-emergence, 336 h, about 2 weeks, read-out: % control (percent of plants killed); for pest or weed control at 2241.7 g/ha: 2 lb./A.; for pest or weed control at 4483.4 g/ha: 4 lb./A.
# Experimental: as §1, §12, §13, §14, §15, §16, §17, §18, §19, §20, §21, §22, §23, §10
# soybeans = assay: Crop tolerance, soybeans; settings: 50% or less kill of crop at rates giving more than 50% kill of weeds
# Experimental: as §10, §11
# peanuts = assay: Crop tolerance, peanuts; settings: 50% or less kill of crop at rates giving more than 50% kill of weeds
# Experimental: as §10, §11
# wheat = assay: Crop tolerance, wheat; settings: 50% or less kill of crop at rates giving more than 50% kill of weeds
# Experimental: as §10, §11
# [5] = postemergence or on transplanted rice
SMILES,pest or weed control at 2241.7 g/ha (Monocots [1]) [%],pest or weed control at 4483.4 g/ha (Monocots [1]) [%],Tolerance to corn (corn; preemergence),Tolerance to rice (rice; [5]),pest or weed control at 2241.7 g/ha (Monocots [2]) [%],pest or weed control at 4483.4 g/ha (Monocots [2]) [%],pest or weed control at 2241.7 g/ha (Dicots [3]) [%],pest or weed control at 4483.4 g/ha (Dicots [3]) [%],pest or weed control at 2241.7 g/ha (Dicots [4]) [%],pest or weed control at 4483.4 g/ha (Dicots [4]) [%],Tolerance to soybeans (soybeans; preemergence),Tolerance to peanuts (peanuts; postemergence),Tolerance to corn (corn; postemergence),Tolerance to wheat (wheat; postemergence),Tolerance to wheat (wheat; preemergence),Tolerance to peanuts (peanuts; preemergence),Tolerance to rice (rice; preemergence),Tolerance to soybeans (soybeans; postemergence or layby)
O=[N+]([O-])c1ccc(Oc2ccc(C(F)(F)F)cc2Cl)cc1OCC(F)(F)F [Example 11],100,82,Tolerance,Tolerance,88,81,100,99,99,98,Tolerance,,,,,,,
"CC(=O)Oc1cc(Oc2ccc(C(F)(F)F)cc2Cl)ccc1[N+](=O)[O-] [Example 18, 2-Chloro-α,α,α-trifluoro-p-tolyl-3-acetoxy-4-nitrophenyl ether]",28,28,,Tolerance,99,67,98,86,100,100,Tolerance,Tolerance,Tolerance,Tolerance,Tolerance,,,
"CCNc1cc(Oc2ccc(C(F)(F)F)cc2Cl)ccc1[N+](=O)[O-] [Example 19, 2-Chloro-α,α,α-trifluoro-p-tolyl-3-ethylamino-4-nitrophenyl ether]",94,84,Tolerance,,77,91,97,98,91,96,Tolerance,,Tolerance,,Tolerance,Tolerance,Tolerance,
"CCN(CC)c1cc(Oc2ccc(C(F)(F)F)cc2Cl)ccc1[N+](=O)[O-] [Example 21, 2-Chloro-α,α,α-trifluoro-p-tolyl-3-diethylamino-4-nitrophenyl ether]",90,74,Tolerance,,79,91,94,96,90,99,Tolerance,,Tolerance,Tolerance,,Tolerance,Tolerance,
CCC(=O)Nc1cc(Oc2ccc(C(F)(F)F)cc2Cl)ccc1[N+](=O)[O-] [Example 34],47,32,Tolerance,Tolerance,83,35,90,89,85,52,Tolerance,Tolerance,Tolerance,Tolerance,Tolerance,Tolerance,Tolerance,Tolerance
"Cc1cc(Oc2ccc(C(F)(F)F)cc2Cl)ccc1[N+](=O)[O-] [Example 36, 2-chloro-α,α,α-trifluoro-p-tolyl-4-nitro-m-tolyl ether]",94,87,,,100,93,98,100,100,100,,Tolerance,Tolerance,Tolerance,,Tolerance,,
